Among the data in US20260226068A1, “IMIDAZOTRIAZINE IL-17A MODULATORS AND USES THEREOF” (DICE ALPHA, INC., priority 2023, published 2026) are IC50 and bioavailability values, retold here.

Data set [1] concerns the target T1, IL-17A/A (Homo sapiens, UniProt Q16552).
T1 construct: purchased Genscript Z03228
T1 sequence (Q16552 24-155): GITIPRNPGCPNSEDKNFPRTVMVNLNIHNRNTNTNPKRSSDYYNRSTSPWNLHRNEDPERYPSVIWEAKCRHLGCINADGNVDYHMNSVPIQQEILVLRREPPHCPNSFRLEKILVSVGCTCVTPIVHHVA
The data set is described as follows: IL-17A/A HEK-Blue cell assay (SEAP reporter). Particulars: HEK-Blue IL-17A reporter cells, IL17A/A 5 ng/mL, 20 hours, SEAP read at A630; read-out: HEK-Blue IL17AA (IC50 for IL-17A/A inhibition). It is filed as cell-based.

The target in data set [2] is T2, IL-17A/F (Homo sapiens, UniProt Q16552+Q96PD4).
T2 construct: purchased R&D Systems
T2 sequence (Q16552 24-155): T1 sequence (Q16552 24-155)
T2 sequence (Q96PD4 31-163): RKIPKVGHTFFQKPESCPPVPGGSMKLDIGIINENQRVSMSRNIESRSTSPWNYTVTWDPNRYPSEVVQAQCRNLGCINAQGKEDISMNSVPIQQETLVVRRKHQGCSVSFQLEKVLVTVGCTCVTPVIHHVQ
The data set can be described thus: IL-17A/F HEK-Blue cell assay (SEAP reporter). Particulars: HEK-Blue IL-17A reporter cells, IL17A/F 5 ng/mL, 20 hours, SEAP read at A630; read-out: HEK-Blue IL17AF (IC50 for IL-17A/F inhibition). It is filed as cell-based.

Data set [3] can be described thus: Mouse oral bioavailability. Type of data set: in vivo. Particulars: C57BL/6J mice, PO 10 mg/kg vs IV 1 mg/kg, plasma AUC, read-out: % F (Mouse), oral bioavailability. As to the method: The test compound is administered to C57BL/6J mice intravenously (IV) at 1 mg/kg or orally (PO) at 10 mg/kg using vehicles composed of 10% DMA, 70% Polyethylene glycol 400, and 20% purified water; or 10% DMA, 50% Polyethylene glycol 400, and 40% purified water. Serial blood collections occur at 0.08, 0.25, 0.5, 1, 2, 4, 8 and 24 h post IV bolus dose administration, and 0.25, 0.5, 1, 2, 4, 8 and 24 h post oral dose administration. Blood samples are treated with EDTA anticoagulant. Plasma is isolated by centrifugation and stored at −70° C. until analysis by LC-MS/MS. Test article concentration is determined in plasma and uploaded into the Phoenix WinNonlin system where noncompartmental analysis is used to calculate Area Under the Curve (AUC) for both IV and PO arms. Bioavailability (% F) is calculated via the following equation,
% F=(AUCPO×DoseIV)/(AUCIV×DosePO)×100

In general, bioavailability refers to dose-corrected exposure relative to a reference, in per cent. Take `CCn1nccc1C(=O)N[C@H](c1cn2nc(C[C@H]3C[C@@H](C(F)(F)F)CNC3=O)c(C3CCCOC3)nc2n1)[C@@H]1CCCC(F)(F)C1` (single isomer, unassigned) [Compound 69]: the IC50 is less than 100 nM in data set [1] and 100 to 1000 nM in data set [2]. In addition, the bioavailability in data set [3] was 40%.
For the compound `CCn1nccc1C(=O)N[C@H](c1cn2nc(C[C@H]3C[C@@H](C(F)(F)F)CNC3=O)c(C3CCCOC3)nc2n1)[C@H]1CCCC(F)(F)C1` (single isomer, unassigned) [Compound 70], the IC50 in data set [1] and in data set [2] was less than 100 nM in each case. Further, in data set [3], the bioavailability came to 45%.
For `CCn1nccc1C(=O)N[C@H](c1cn2nc(CC3C[C@@H](C(F)(F)F)CNC3=O)c(N3CCO[C@H](C)C3)nc2n1)[C@@H]1CCCC(F)(F)C1` (single isomer, unassigned) [Compound 122], the IC50 in data set [1] and in data set [2] was less than 100 nM in each case. The bioavailability in data set [3] was 51%.
For the compound `CCn1nccc1C(=O)N[C@H](c1cn2nc(C[C@H]3C[C@@H](C(F)(F)F)CNC3=O)c(C3CCOC3)nc2n1)[C@H]1CCCC(F)(F)C1` (single isomer, unassigned) [Compound 204], the IC50 in data set [1] was less than 100 nM; in data set [2], 100 to 1000 nM. Moreover, the bioavailability in data set [3] was found to be 27%.
For `O=C(N[C@H](c1cn2nc(CC3C[C@@H](C(F)(F)F)CNC3=O)c(N3CCOCC3)nc2n1)C1CCC(F)(F)CC1)c1nonc1C1CC1` (stereo partly drawn) [Compound 56], in that order: less than 100 nM, greater than 1000 nM and 87%.
For `CCn1nccc1C(=O)N[C@H](c1cn2nc(C[C@H]3C[C@@H](C(F)(F)F)CNC3=O)c(C3CCOCC3)nc2n1)C1CCC(F)(F)CC1` [Compound 88, N-((1S)-(4,4-difluorocyclohexyl)(2-(((3R,5R)-2-oxo-5-(trifluoromethyl)piperidin-3-yl)methyl)-3-(tetrahydro-2H-pyran-4-yl)imidazo[1,2-b][1,2,4]triazin-6-yl)methyl)-1-ethyl-1H-pyrazole-5-carboxamide], in that order: less than 100 nM, 100 to 1000 nM and 69%.
For `Cc1nonc1C(=O)N[C@H](c1cn2nc(C[C@H]3C[C@@H](C(F)(F)F)CNC3=O)c(C3CCOCC3)nc2n1)C1CCC(F)(F)CC1` [Compound 148, N-((1S)-(4,4-difluorocyclohexyl)(2-(((3R,5R)-2-oxo-5-(trifluoromethyl)piperidin-3-yl)methyl)-3-(tetrahydro-2H-pyran-4-yl)imidazo[1,2-b][1,2,4]triazin-6-yl)methyl)-4-methyl-1,2,5-oxadiazole-3-carboxamide], in that order: less than 100 nM, greater than 1000 nM and 91%.
Take `CCn1nccc1C(=O)N[C@H](c1cn2nc(C[C@H]3C[C@@H](C(F)(F)F)CNC3=O)c(C3CC4CCC(C3)O4)nc2n1)C1CCC(F)(F)CC1` (stereo partly drawn) [Compound 153, N-((1S)-(3-(8-oxabicyclo[3.2.1]octan-3-yl)-2-(((3R,5R)-2-oxo-5-(trifluoromethyl)piperidin-3-yl)methyl)imidazo[1,2-b][1,2,4]triazin-6-yl)(4,4-difluorocyclohexyl)methyl)-1-ethyl-1H-pyrazole-5-carboxamide]: the IC50 in data set [1] is less than 100 nM; in data set [2], 100 to 1000 nM. For the same compound, the bioavailability in data set [3] amounted to 43%.
As for `CC(C)n1ncnc1C(=O)N[C@H](c1cn2nc(C[C@H]3C[C@@H](C(F)(F)F)CNC3=O)c(C3CCOCC3)nc2n1)C1CCC(F)(F)CC1` [Compound 229], the IC50 in data set [1] was less than 100 nM; in data set [2], greater than 1000 nM. Further, the bioavailability in data set [3] is 83%.
